In patent EP0626016B1, “[…] […]” (BRITISH TECHNOLOGY GROUP LIMITED, priority 1992, dated 1993):
Like-named read-outs stand apart in the source and are kept apart here.

Biological target: T1, HRP Type VIA (Armoracia rusticana, UniProt P00433)
T1 sequence (P00433 31-338): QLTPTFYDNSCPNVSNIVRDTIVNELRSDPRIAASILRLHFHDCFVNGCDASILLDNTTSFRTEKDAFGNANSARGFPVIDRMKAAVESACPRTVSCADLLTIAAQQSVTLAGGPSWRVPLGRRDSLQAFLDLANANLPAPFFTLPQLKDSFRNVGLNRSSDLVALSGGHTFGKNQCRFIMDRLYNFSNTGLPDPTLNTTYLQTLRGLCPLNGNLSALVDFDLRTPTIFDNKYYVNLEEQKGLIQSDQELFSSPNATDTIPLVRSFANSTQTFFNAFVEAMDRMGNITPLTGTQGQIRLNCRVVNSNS
Conditions: 10µl test compound; for (d) Signal: Background: ratio (control = with no enhancer): control value in brackets not reported

(a) Decrease in background (without HRP with test cpd.) (0.01 mg/ml) | (b) Increase in signal (with HRP, with test cpd.) (0.01 mg/ml) | (d) Signal: Background: ratio (control = with no enhancer) (0.01 mg/ml) | (a) Decrease in background (without HRP with test cpd.) (0.1 mg/ml) | (b) Increase in signal (with HRP, with test cpd.) (0.1 mg/ml) | (d) Signal: Background: ratio (control = with no enhancer) (0.1 mg/ml) | (a) Decrease in background (without HRP with test cpd.) (1 mg/ml) | (b) Increase in signal (with HRP, with test cpd.) (1 mg/ml) | (d) Signal: Background: ratio (control = with no enhancer) (1 mg/ml) | Substance | (c) Increase in signal: background ratio (0.01 mg/ml) | (c) Increase in signal: background ratio (0.1 mg/ml) | (c) Increase in signal: background ratio (1 mg/ml)
Y | Y | 2.3 | Y | Y | 2.9 | Y | N | 3.1 (2.1) | boroglycine [Compound 1015] | N (N = no) | Y (Column (c) shows whether there was an increase in the signal:background ratio by over 25% of the control value (Y = yes) | Y (Column (c) shows whether there was an increase in the signal:background ratio by over 25% of the control value (Y = yes)
Y | N | 2.6 (2.0) | Y | N | 7.6 (2.9) | Y | N |  | dimethylphenylboronic acid [Compound 1036] | Y (Column (c) shows whether there was an increase in the signal:background ratio by over 25% of the control value (Y = yes) | Y (Column (c) shows whether there was an increase in the signal:background ratio by over 25% of the control value (Y = yes) | N (N = no)
Y | Y | 3.1 (1.8) | Y | Y | 139.0 (2.7) | Y | N | 100.0 (4.5) | diphenylboronic anhydride [Compound 1048] | Y (Column (c) shows whether there was an increase in the signal:background ratio by over 25% of the control value (Y = yes) | Y (Column (c) shows whether there was an increase in the signal:background ratio by over 25% of the control value (Y = yes) | Y (Column (c) shows whether there was an increase in the signal:background ratio by over 25% of the control value (Y = yes)
Y | N |  | Y | N |  | Y | N |  | methyl-(2-tolylboronic acid)sulfoxide [Compound 1051] | N (N = no) | N (N = no) | N (N = no)
